Test results reported in patent publication USRE47689E1, “Compounds for treating spinal muscular atrophy” (PTC Therapeutics, Inc., priority 2011, dated 2019).
Read-outs that look alike come from different tables or passages of the source.

Assays:
Smn protein = Smn protein assay in cultured cells (SMN HTRF); type: cell-based, human; settings: for EC1.5x (concentration giving 1.5-fold Smn protein increase): SMA Type 1 patient fibroblast cells (GM03813), 7-point concentration curve, SMN HTRF, concentration producing 1.5 times Smn protein vs DMSO vehicle control, read-out: EC1.5x for Smn protein expression
Method in brief: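 Smn in SMA fibroblast lysates, measured by anti-SMN HTRF after 48 h compound exposure; EC1.5x from fold change over vehicle.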

[1] = test system: SMN2 minigene (full length SMN2 minigene mRNA containing SMN2 exon 7); assay: SMN2 minigene mRNA splicing RT-qPCR assay in cultured cells; type: cell-based, human; settings: Homo sapiens, HEK293-H, read-out: EC1.5x for production of full length SMN2 mRNA
Method in brief: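 Lysates → one-step RT-qPCR, minigene-specific primers (0.4 μM final) + GAPDH multiplex, 40 cycles. FL/GAPDH vs DMSO; EC1.5x, star-binned.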

[2] = SMA patient fibroblast cells, 48 hours, 7-point concentration data, fold increase relative to vehicle control (SMN HTRF)
[3] = HEK293H cells stably transfected with SMN2-A minigene, 24 hours, 7-point concentration curve, 1.5-fold relative to vehicle-treated cells

Row | Compound | melting point [°C] | EC1.5x (concentration giving 1.5-fold Smn protein increase) (Smn protein; 48 hours) [nM] | maximum fold (Fold) increase of Smn protein (Smn protein; [2]) | EC (1.5-fold) [1, 3] [µM] | maximum fold (Fold) increase of Smn protein (Smn protein) | EC (1.5-fold) ([1]; 24 h) [µM]
1 | Cc1cn2cc(-c3cc4ccc(C5CCN(C6CCC6)CC5)cc4oc3=O)nc2cn1 [Compound 869, 7-(1-cyclobutylpiperidin-4-yl)-3-(6-methylimidazo[1,2-a]pyrazin-2-yl)-2H-chromen-2-one] | 256 to 268 | < 300 | ***** (fold increase >1.65) | < 0.1 | – | –
2 | Cc1cn2cc(-c3cc4ccc(OCCN5CCCC5)cc4oc3=O)nc2c(C)n1 [Cpd 918, 3-(6,8-dimethylimidazo[1,2-a]pyrazin-2-yl)-7-[2-(pyrrolidin-1-yl)ethoxy]-2H-chromen-2-one] | 201 to 203 | 300 to 1000 | **** (fold increase between >1.5 and ≤1.65) | < 0.1 | – | –
3 | Cc1nc2ccc(-c3cc4ccc(N5CCNCC5)cc4oc3=O)cc2o1 [Compound 695, 3-(2-methyl-1,3-benzoxazol-6-yl)-7-(piperazin-1-yl)-2H-chromen-2-one] | 200 to 205 | – | *** (fold increase between >1.35 and ≤1.5) | < 0.1 | – | –
4 | Cc1cn2cc(-c3cc4ccc(C5CCN(CCO)CC5)cc4oc3=O)nc2cn1 [Compound 843, 7-[1-(2-hydroxyethyl)piperidin-4-yl]-3-(6-methylimidazo[1,2-a]pyrazin-2-yl)-2H-chromen-2-one] | 230 to 236 | < 300 | **** (fold increase between >1.5 and ≤1.65) | < 0.1 | – | –
5 | CCOc1ncccc1-c1cc2ccc(N3CCNCC3)cc2oc1=O [Compound 256, 3-(2-ethoxypyridin-3-yl)-7-(piperazin-1-yl)-2H-chromen-2-one] | 186 to 188 | – | * (maximum fold increase of ≤1.2) | 3 to 30 | – | –
6 | Cc1ccc2cc(-c3cc4ccc(N5CCNCC5)cc4oc3=O)cn2n1 [Cpd 641, 3-(2-methylpyrrolo[1,2-b]pyridazin-6-yl)-7-(piperazin-1-yl)-2H-chromen-2-one] | 213 to 216 | – | – | – | * (key: *: maximum fold increase of ≤1.2; **: fold increase between >1.2 and ≤1.35; ***: fold increase between >1.35 and ≤1.5; ****: fold increase between >1.5 and ≤1.65; *****: fold increase >1.65) | 0.3 to 1
7 | Cc1cn2cc(-c3cc4ccc(OCCN5CCOCC5)cc4oc3=O)nc2c(C)n1 [Compound 956, 3-(6,8-dimethylimidazo[1,2-a]pyrazin-2-yl)-7-[2-(morpholin-4-yl)ethoxy]-2H-chromen-2-one] | 175 to 177 | 1000 to 3000 | ***** (fold increase >1.65) | 0.1 to 0.3 | – | –
8 | Cc1cn2cc(-c3cc4ccc(CCCN5CCN(C)CC5)cc4oc3=O)nc2c(C)n1 [Compound 860, 3-(6,8-dimethylimidazo[1,2-a]pyrazin-2-yl)-7-[3-(4-methylpiperazin-1-yl)propyl]-2H-chromen-2-one] | 219 to 223 | 1000 to 3000 | **** (fold increase between >1.5 and ≤1.65) | 0.3 to 1 | – | –
9 | CN1CCCN(c2ccc3cc(-c4nc5ccccc5o4)c(=O)oc3c2)CC1 [Compound 47, 3-(1,3-benzoxazol-2-yl)-7-(4-methyl-1,4-diazepan-1-yl)-2H-chromen-2-one] | 170 to 173 | – | ** (fold increase between >1.2 and ≤1.35) | 3 to 30 | – | –

Second part, led by results:

Row | melting point [°C] | Compound | EC1.5x (concentration giving 1.5-fold Smn protein increase) (Smn protein; 48 hours) [nM] | maximum fold (Fold) increase of Smn protein (Smn protein; [2]) | EC (1.5-fold) [1, 3] [µM] | maximum fold (Fold) increase of Smn protein (Smn protein) | EC (1.5-fold) ([1]; 24 h) [µM]
10 | 255 to 258 | Cc1cn2cc(-c3cc4ccc(N5CCN6CCC[C@@H]6C5)cc4oc3=O)nc2c(C)n1 [Compound 632, 3-(6,8-dimethylimidazo[1,2-a]pyrazin-2-yl)-7-[(8aR)-hexahydropyrrolo[1,2-a]pyrazin-2(1H)-yl]-2H-chromen-2-one] | < 300 | ***** (fold increase >1.65) | < 0.1 | – | –
11 | 222 | Cc1ccn2cc(-c3cc4ccc(N5CCN[C@H](C)C5)cc4oc3=O)nc2c1 [Compound 214, 3-(7-methylimidazo[1,2-a]pyridin-2-yl)-7-[(3R)-3-methylpiperazin-1-yl]-2H-chromen-2-one] | – | ** (fold increase between >1.2 and ≤1.35) | 0.3 to 1 | – | –
12 | 213 to 219 | C[C@@H]1CN[C@@H](C)CN1c1ccc2cc(-c3cn4ccc(C(F)(F)F)cc4n3)c(=O)oc2c1 [Compound 277, 7-[(2R,5S)-2,5-dimethylpiperazin-1-yl]-3-[7-(trifluoromethyl)imidazo[1,2-a]pyridin-2-yl]-2H-chromen-2-one] | – | * (maximum fold increase of ≤1.2) | 0.3 to 1 | – | –
13 | 251 to 253 | CCc1cn2cc(-c3cc4ccc(N5C[C@@H](C)N[C@@H](C)C5)cc4oc3=O)nc2s1 [Cpd 429, 7-[(3R,5S)-3,5-dimethylpiperazin-1-yl]-3-(2-ethylimidazo[2,1-b][1,3]thiazol-6-yl)-2H-chromen-2-one] | – | * (maximum fold increase of ≤1.2) | 0.3 to 1 | – | –
14 | 231 to 238 | Cc1cc(F)c2nc(-c3cc4ccc(N[C@@H]5CCNC5)cc4oc3=O)cn2c1 [Compound 583, 3-(8-fluoro-6-methylimidazo[1,2-a]pyridin-2-yl)-7-[(3R)-pyrrolidin-3-ylamino]-2H-chromen-2-one] | – | ** (fold increase between >1.2 and ≤1.35) | 0.3 to 1 | – | –
15 | 180 to 182 | CC1(C)CN(c2ccc3cc(-c4cn5cccc(F)c5n4)c(=O)oc3c2)CCN1 [Compound 507, 7-(3,3-dimethylpiperazin-1-yl)-3-(8-fluoroimidazo[1,2-a]pyridin-2-yl)-2H-chromen-2-one] | < 300 | **** (fold increase between >1.5 and ≤1.65) | 0.1 to 0.3 | – | –
16 | 218 to 220 | CCN(CC)C1CN(c2ccc3cc(-c4cn5cc(C)nc(C)c5n4)c(=O)oc3c2)C1 [Compound 944, 7-[3-(diethylamino)azetidin-1-yl]-3-(6,8-dimethylimidazo[1,2-a]pyrazin-2-yl)-2H-chromen-2-one] | 300 to 1000 | **** (fold increase between >1.5 and ≤1.65) | < 0.1 | – | –
17 | 250 to 261 | O=c1oc2cc(N3CCNCC3)ccc2cc1-c1cn2cc(F)cnc2n1 [Compound 502, 3-(6-fluoroimidazo[1,2-a]pyrimidin-2-yl)-7-(piperazin-1-yl)-2H-chromen-2-one] | – | * (maximum fold increase of ≤1.2) | 1 to 3 | – | –
18 | 232 | Cc1cn2cc(-c3cc4ccc(N5C[C@H]6CCCN(C)[C@H]6C5)cc4oc3=O)nc2c(C)n1 [Compound 658, 3-(6,8-dimethylimidazo[1,2-a]pyrazin-2-yl)-7-[(4aR,7aR)-1-methyloctahydro-6H-pyrrolo[3,4-b]pyridin-6-yl]-2H-chromen-2-one] | < 300 | ***** (fold increase >1.65) | < 0.1 | – | –
19 | 183 to 187 | Cc1ccn2nc(-c3cc4ccc(N5CCN[C@H](C)C5)cc4oc3=O)cc2c1 [Compound 306, 7-[(3R)-3-methylpiperazin-1-yl]-3-(5-methylpyrazolo[1,5-a]pyridin-2-yl)-2H-chromen-2-one] | – | *** (fold increase between >1.35 and ≤1.5) | 0.1 to 0.3 | – | –
20 | 205 to 207 | Cc1cn2cc(-c3cc4ccc(N5CCN(C)[C@@H](C)C5)cc4oc3=O)ccc2n1 [Compound 675, 7-[(3S)-3,4-dimethylpiperazin-1-yl]-3-(2-methylimidazo[1,2-a]pyridin-6-yl)-2H-chromen-2-one] | 1000 to 3000 | **** (fold increase between >1.5 and ≤1.65) | < 0.1 | – | –
21 | 238 to 241 | CN(C)[C@H]1CCN(c2ccc3cc(-c4cn5cccc(Cl)c5n4)c(=O)oc3c2)C1 [Compound 122, 3-(8-chloroimidazo[1,2-a]pyridin-2-yl)-7-[(3S)-3-(dimethylamino)pyrrolidin-1-yl]-2H-chromen-2-one] | – | * (maximum fold increase of ≤1.2) | 1 to 3 | – | –
22 | 235 to 237 | Cc1ccc2nc(-c3cc4ccc(N5C[C@@H](C)N[C@@H](C)C5)cc4oc3=O)cn2c1 [Compound 174, 7-[(3R,5S)-3,5-dimethylpiperazin-1-yl]-3-(6-methylimidazo[1,2-a]pyridin-2-yl)-2H-chromen-2-one] | – | *** (fold increase between >1.35 and ≤1.5) | < 0.1 | – | –
23 | 145 to 147 | CCN1CCN(c2ccc3cc(-c4cccc(OC)n4)c(=O)oc3c2)CC1 [Compound 360, 7-(4-ethylpiperazin-1-yl)-3-(6-methoxypyridin-2-yl)-2H-chromen-2-one] | – | * (maximum fold increase of ≤1.2) | 1 to 3 | – | –
